Assay results reported in EPA's CvTdb concentration-time database.

What was measured:
Assay in all cases: concentration in plasma after dosing
Rat [1] = conditions: dosed: 4-methylimidazole, 10 mg/kg, iv, Male, Harlan Sprague Dawley
Rat [2] = conditions: dosed: 4-methylimidazole, 10 mg/kg, iv, Male, Harlan Sprague Dawley; remark: listed apart in the source
Rat [3] = conditions: dosed: 4-methylimidazole, 10 mg/kg, iv, Male, Harlan Sprague Dawley; remark: listed apart in the source
Rat [4] = conditions: dosed: 4-methylimidazole, 10 mg/kg, iv, Male, Harlan Sprague Dawley; remark: listed apart in the source
Rat [5] = conditions: dosed: 4-methylimidazole, 10 mg/kg, iv, Male, Harlan Sprague Dawley; remark: listed apart in the source
Rat [6] = conditions: dosed: 4-methylimidazole, 10 mg/kg, iv, Male, Harlan Sprague Dawley; remark: listed apart in the source
Rat [7] = conditions: dosed: 4-methylimidazole, 10 mg/kg, iv, Male, Harlan Sprague Dawley; remark: listed apart in the source
Rat [8] = conditions: dosed: 4-methylimidazole, 10 mg/kg, iv, Male, Harlan Sprague Dawley; remark: listed apart in the source
Rat [9] = conditions: dosed: 4-methylimidazole, 10 mg/kg, iv, Male, Harlan Sprague Dawley; remark: listed apart in the source
Rat [10] = conditions: 0.75 h; dosed: 4-methylimidazole; 10 mg/kg; iv; Male; Harlan Sprague Dawley
Rat [11] = conditions: dosed: 4-methylimidazole, 10 mg/kg, iv, Male, Harlan Sprague Dawley; remark: listed apart in the source
Rat [12] = conditions: dosed: 4-methylimidazole, 10 mg/kg, iv, Male, Harlan Sprague Dawley; remark: listed apart in the source
Rat [13] = conditions: dosed: 4-methylimidazole, 10 mg/kg, iv, Male, Harlan Sprague Dawley; remark: listed apart in the source
Rat [14] = conditions: dosed: 4-methylimidazole, 10 mg/kg, iv, Male, Harlan Sprague Dawley; remark: listed apart in the source
Rat [15] = conditions: 0.75 h; dosed: 4-methylimidazole; 10 mg/kg; iv; Male; Harlan Sprague Dawley; remark: listed apart in the source
Rat [16] = conditions: dosed: 4-methylimidazole, 10 mg/kg, iv, Male, Harlan Sprague Dawley; remark: listed apart in the source
Rat [17] = conditions: dosed: 4-methylimidazole, 10 mg/kg, iv, Male, Harlan Sprague Dawley; remark: listed apart in the source
Rat [18] = conditions: dosed: 4-methylimidazole, 10 mg/kg, iv, Male, Harlan Sprague Dawley; remark: listed apart in the source
Rat [19] = conditions: dosed: 4-methylimidazole, 10 mg/kg, iv, Male, Harlan Sprague Dawley; remark: listed apart in the source
Rat [20] = conditions: dosed: 4-methylimidazole, 10 mg/kg, iv, Male, Harlan Sprague Dawley; remark: listed apart in the source
Rat [21] = conditions: dosed: 4-methylimidazole, 10 mg/kg, iv, Male, Harlan Sprague Dawley; remark: listed apart in the source
Rat [22] = tested on: Rat
Rat [23] = conditions: dosed: 4-methylimidazole, 10 mg/kg, iv, Male, Harlan Sprague Dawley; remark: listed apart in the source
Rat [24] = conditions: dosed: 4-methylimidazole, 10 mg/kg, iv, Female, Harlan Sprague Dawley
Rat [25] = conditions: dosed: 4-methylimidazole, 10 mg/kg, iv, Male, Harlan Sprague Dawley; remark: listed apart in the source
Rat [26] = conditions: dosed: 4-methylimidazole, 10 mg/kg, iv, Male, Harlan Sprague Dawley; remark: listed apart in the source
Rat [27] = conditions: 0.5 h; dosed: 4-methylimidazole; 10 mg/kg; iv; Male; Harlan Sprague Dawley
Rat [28] = conditions: dosed: 4-methylimidazole, 10 mg/kg, iv, Female, Harlan Sprague Dawley; remark: listed apart in the source
Rat [29] = conditions: 0.5 h; dosed: 4-methylimidazole; 10 mg/kg; iv; Male; Harlan Sprague Dawley; remark: listed apart in the source
Rat [30] = conditions: 3.5 h; dosed: Oxazepam; 50 mg/kg; oral; Male; F344
Rat [31] = conditions: 3.5 h; dosed: Oxazepam; 50 mg/kg; oral; Female; F344
Rat [32] = conditions: dosed: Oxazepam, 200 mg/kg, oral, Male, F344
Rat [33] = conditions: dosed: Oxazepam, 50 mg/kg, oral, Female, F344
Rat [34] = conditions: dosed: Oxazepam, 200 mg/kg, oral, Male, F344; remark: listed apart in the source
Rat [35] = conditions: dosed: Oxazepam, 200 mg/kg, oral, Male, F344; remark: listed apart in the source
Rat [36] = conditions: dosed: Oxazepam, 200 mg/kg, oral, Male, F344; remark: listed apart in the source
Rat [37] = conditions: dosed: Oxazepam, 200 mg/kg, oral, Female, F344
Rat [38] = conditions: 3.5 h; dosed: Oxazepam; 50 mg/kg; oral; Male; F344; remark: listed apart in the source
Rat [39] = conditions: dosed: Oxazepam, 200 mg/kg, oral, Male, F344; remark: listed apart in the source
Rat [40] = conditions: dosed: Oxazepam, 200 mg/kg, oral, Female, F344; remark: listed apart in the source
Rat [41] = conditions: dosed: Oxazepam, 400 mg/kg, oral, Male, F344
Rat [42] = conditions: dosed: Oxazepam, 200 mg/kg, oral, Female, F344; remark: listed apart in the source
Rat [43] = conditions: dosed: Oxazepam, 200 mg/kg, oral, Female, F344; remark: listed apart in the source
Rat [44] = conditions: dosed: Oxazepam, 200 mg/kg, oral, Female, F344; remark: listed apart in the source
Rat [45] = conditions: dosed: Oxazepam, 50 mg/kg, oral, Male, F344
Rat [46] = conditions: dosed: Oxazepam, 50 mg/kg, oral, Male, F344; remark: listed apart in the source
Rat [47] = conditions: 1 h; dosed: Oxazepam; 50 mg/kg; oral; Female; F344
Rat [48] = conditions: dosed: Oxazepam, 400 mg/kg, oral, Female, F344
Rat [49] = conditions: 2 h; dosed: Oxazepam; 50 mg/kg; oral; Male; F344
Rat [50] = conditions: dosed: Oxazepam, 50 mg/kg, oral, Female, F344; remark: listed apart in the source
Rat [51] = conditions: dosed: Oxazepam, 50 mg/kg, oral, Female, F344; remark: listed apart in the source
Rat [52] = conditions: dosed: Oxazepam, 50 mg/kg, oral, Male, F344; remark: listed apart in the source
Rat [53] = conditions: dosed: Oxazepam, 400 mg/kg, oral, Female, F344; remark: listed apart in the source
Rat [54] = conditions: dosed: Oxazepam, 400 mg/kg, oral, Male, F344; remark: listed apart in the source
Rat [55] = conditions: dosed: Oxazepam, 200 mg/kg, oral, Male, F344; remark: listed apart in the source
Rat [56] = conditions: dosed: Oxazepam, 50 mg/kg, oral, Female, F344; remark: listed apart in the source
Rat [57] = conditions: dosed: Oxazepam, 200 mg/kg, oral, Female, F344; remark: listed apart in the source
Rat [58] = conditions: dosed: Oxazepam, 200 mg/kg, oral, Female, F344; remark: listed apart in the source
Rat [59] = conditions: dosed: Oxazepam, 200 mg/kg, oral, Male, F344; remark: listed apart in the source
Rat [60] = conditions: dosed: Oxazepam, 50 mg/kg, oral, Male, F344; remark: listed apart in the source
Rat [61] = conditions: dosed: Oxazepam, 200 mg/kg, oral, Female, F344; remark: listed apart in the source
Rat [62] = conditions: dosed: Oxazepam, 200 mg/kg, oral, Male, F344; remark: listed apart in the source
Rat [63] = conditions: dosed: Oxazepam, 50 mg/kg, oral, Male, F344; remark: listed apart in the source
Rat [64] = conditions: dosed: Oxazepam, 50 mg/kg, oral, Female, F344; remark: listed apart in the source
Rat [65] = conditions: dosed: Oxazepam, 50 mg/kg, oral, Female, F344; remark: listed apart in the source

Cc1cnc[nH]1 [4-methylimidazole]
Conditions	concentration in plasma [ng/mL]
Rat [1], 4 h	611
Rat [1], 10 min	8520
Rat [2], 2 h	2460
Rat [2], 10 min	7010
Rat [3], 4 h	647
Rat [3], 20 min	6930
Rat [4], 4 h	960
Rat [4], 20 min	5890
Rat [5], 6 h	112
Rat [5], 20 min	7340
Rat [6], 6 h	148
Rat [6], 20 min	6950
Rat [7], 4 h	1720
Rat [7], 10 min	7910
Rat [8], 0.75 h	3040
Rat [8], 8 h	656
Rat [9], 1 h	4610
Rat [9], 2 min	12200
Rat [11], 0.75 h	5620
Rat [11], 8 h	74.3
Rat [12], 4 h	1490
Rat [12], 10 min	7840
Rat [13], 0.5 h	5440
Rat [13], 8 h	88.2
Rat [14], 1 h	4110
Rat [14], 7 min	7090
Rat [16], 0.75 h	4780
Rat [16], 2 min	11800
Rat [17], 2 h	3340
Rat [17], 7 min	8240
Rat [18], 6 h	116
Rat [18], 20 min	6840
Rat [19], 2 h	2740
Rat [19], 7 min	8840
Rat [20], 1 h	4070
Rat [20], 2 min	10200
Rat [21], 0.5 h	5620
Rat [21], 6 h	162
Rat [23], 0.5 h	5280
Rat [23], 6 h	108
Rat [24], 1 h	6380
Rat [24], 2 min	10500
Rat [25], 2 h	2740
Rat [25], 7 min	8150
Rat [26], 2 h	3520
Rat [26], 10 min	6960
Rat [28], 1 h	5190
Rat [28], 2 min	12000

Conditions	concentration in plasma [ng/mL]
Rat [10]	5440
Rat [15]	6160
Rat [27]	5770
Rat [29]	5420

concentration in plasma [ng/mL], Rat [22], dosed: 4-methylimidazole, 10 mg/kg, iv, Harlan Sprague Dawley
Conditions	Female	Male
0.5 h	–	7300
0.75 h	–	6210
1 h	4810	–
2 h	–	2060
2 min	–	9350
4 h	–	690
6 h	–	454
7 min	8000	9000
8 h	–	205
10 min	–	8770
20 min	–	6950

O=C1Nc2ccc(Cl)cc2C(c2ccccc2)=NC1O (centres undefined) [Oxazepam]
Conditions	concentration in plasma [ng/mL]
Rat [30]	1260
Rat [31]	2510
Rat [38]	1070
Rat [47]	1290
Rat [49]	990

Conditions	concentration in plasma [ng/mL]
Rat [32], 6 h	2020
Rat [32], 20 min	1470
Rat [33], 6 h	1630
Rat [33], 20 min	760
Rat [34], 1 h	1630
Rat [34], 10 h	2030
Rat [35], 2 h	2210
Rat [35], 18 h	1850
Rat [36], 1 h	2310
Rat [36], 10 h	1250
Rat [37], 1 h	2880
Rat [37], 10 h	3470
Rat [39], 2 h	2130
Rat [39], 18 h	3140
Rat [40], 6 h	1000
Rat [40], 20 min	1200
Rat [41], 1 h	3500
Rat [41], 10 h	1790
Rat [42], 3.5 h	4280
Rat [42], 24 h	1460
Rat [43], 2 h	2840
Rat [43], 18 h	760
Rat [44], 1 h	2300
Rat [44], 10 h	1720
Rat [45], 2 h	990
Rat [45], 18 h	370
Rat [46], 1 h	1280
Rat [46], 10 h	520
Rat [48], 1 h	3270
Rat [48], 10 h	4280
Rat [50], 2 h	1620
Rat [50], 18 h	270
Rat [51], 6 h	1560
Rat [51], 20 min	880
Rat [52], 6 h	580
Rat [52], 20 min	400
Rat [53], 1 h	4120
Rat [53], 10 h	5630
Rat [54], 1 h	2440
Rat [54], 10 h	3960
Rat [55], 6 h	1960
Rat [55], 20 min	1020
Rat [56], 2 h	3640
Rat [56], 18 h	270
Rat [57], 6 h	4550
Rat [57], 20 min	1250
Rat [58], 2 h	3340
Rat [58], 18 h	3360
Rat [59], 3.5 h	10500
Rat [59], 24 h	1320
Rat [60], 6 h	510
Rat [60], 20 min	290
Rat [61], 3.5 h	2990
Rat [61], 24 h	10000
Rat [62], 3.5 h	2630
Rat [62], 24 h	520
Rat [63], 1 h	950
Rat [63], 10 h	390
Rat [64], 3.5 h	710
Rat [64], 24 h	450
Rat [65], 1 h	1610
Rat [65], 10 h	820

concentration in plasma [ng/mL], Rat [22], dosed: Oxazepam, oral, F344
Conditions	1 h	2 h	3.5 h	6 h	10 h	18 h	20 min	24 h
50 mg/kg, Female	2850	1900	1170	1230	1380	280	560	–
50 mg/kg, Male	1230	1000	910	680	330	–	450	590
200 mg/kg, Female	3020	3870	2700	3910	5160	5030	1250	5000
200 mg/kg, Male	2370	–	3150	1580	1890	730	600	2280
400 mg/kg, Female	4100	–	–	–	4480	–	–	–
400 mg/kg, Male	3070	–	–	–	2910	–	–	–
